Experiments:
Type in all cases: functional, cell-based
[1] = tested on: HCT-116; assay: Antiproliferative activity against human HCT-116 cells assessed as reduction in cell viability measured after 72 hrs by MTT assay; conditions: HCT-116, 72 h
[2] = tested on: HepG2; assay: Antiproliferative activity against human HepG2 cells assessed as reduction in cell viability measured after 72 hrs by MTT assay; conditions: HepG2, 72 h
[3] = tested on: J82; assay: Antiproliferative activity against human J82 cells assessed as reduction in cell viability measured after 72 hrs by MTT assay; conditions: J82, 72 h
[4] = tested on: SK-BR-3; assay: Antiproliferative activity against human SK-BR-3 cells assessed as reduction in cell viability measured after 72 hrs by MTT assay; conditions: SK-BR-3, 72 h

SMILES	IC50 [1] [µM]	IC50 [2] [µM]	IC50 [4] [µM]	IC50 [3] [µM]
C=C(C)[C@H](C)[C@H](O)c1ccc2c(c1OC)C(=O)OCc1cc(C)cc(O)c1O2	22.4	12.4	43.8	62.4
C=C1CO[C@@H](c2ccc3c(c2OC)C(=O)OCc2cc(C)cc(O)c2O3)[C@@H]1O	20.7	21.6	> 100	> 100
COc1c([C@@H]2OC[C@@](C)(O)[C@H]2O)ccc2c1C(=O)OCc1cc(C)cc(O)c1O2	74.3	99.7	88.5	> 100

Further lines, with some results ahead:

IC50 [1] [µM]	IC50 [2] [µM]	IC50 [4] [µM]	SMILES	IC50 [3] [µM]
47.1	80.1	> 100	COc1c([C@H]2OC[C@@](C)(O)[C@H]2O)ccc2c1C(=O)OCc1cc(C)cc(O)c1O2	> 100
79.3	70.1	> 100	COc1c(/C=C/[C@@](C)(O)CO)ccc2c1C(=O)OCc1cc(C)cc(O)c1O2	> 100
57.1	30.1	86.5	C=C1CO[C@H](c2ccc3c(c2OC)C(=O)OCc2cc(C)cc(O)c2O3)[C@H]1O	> 100
45.6	16.8	29.1	C=C1COC(c2ccc3c(c2OC)C(=O)OCc2cc(C)cc(O)c2O3)C1O (racemic)	> 100

Source: ChEMBL document CHEMBL5143561, “Neopestolides A-D, Diphenyl Ether Derivatives from the Plant Endophytic Fungus Neopestalotiopsis sp” (J Nat Prod, 2022)
